In patent publication US20080051463A1, “ANTHRACENE COMPOUNDS AND THEIR USE FOR TREATING BENIGN AND MALIGNANT TUMOR DISORDERS” (AETERNA ZENTARIS GmbH, priority 2006, published 2008):
Converted amounts (≈) assume the structure as drawn. “And” between values parts separate entries of the source, which are not always exact repeats. Equal entries are not always repeated.

What was measured:
[1] = system: T1, porcine brain tubulin; assay: Inhibition of the polymerization of porcine brain tubulin (turbidimetric); format: biochemical; conditions: porcine brain tubulin with about 15% MAPs, GTP, 37° C.
T1 construct: In addition to tubulin, the protein used comprises about 15% of associated proteins (MAPs)
Method: b) In an in vitro test, the compounds 1, 2, 4 and 7 were tested for inhibition of the polymerization of porcine brain tubulin. In this test, tubulin purified by polymerization and depolymerization cycles is used (Shelanski et al. Proc. Natl. Acad. Sci. U.S.A. 1973, 70, 765-768 modified according to Vater et al. Acta Histochem. Suppl. 1986, 33, 123-129), which is polymerized by addition of GTP and heating to 37° C. In addition to tubulin, the protein used comprises about 15% of associated proteins (MAPs). The measurement values were determined turbidimetrically according to Gaskin et al. J. Mol. Biol. 89 (1974) 737-755.
Table 3 states the EC50 value of the polymerization inhibition.

[2] = system: human cervical carcinoma cell line KB/HeLa; assay: Proliferation test (cellular dehydrogenase activity), KB/HeLa; format: cell-based
Excerpt: (§1) The antiproliferative activity of the compounds 1, 2, 4, 6, 7, 9, 10, 11, 12 and 13 according to the invention was investigated in a proliferation test performed on established tumor cell lines (D. A. Scuderio et al. Cancer Res. 1988, 48: 4827-4833).
(§2) The test used determines the cellular dehydrogenase activity and makes it possible to determine cell viability and determine cell number indirectly.
(§3) The cell lines used are the human cervical carcinoma cell line KB/HeLa (ATCC CCL17), the ovarian adenocarcinoma cell line SKOV-3 (ATCC HTB77), the human glioblastoma cell line SF-268 (NCI-503138) and the lung carcinoma cell line NCI-H460 (NCI-503473). In addition, an RKOp27 cell system was used for investigating the cell cycle-specific effect of the substance (M. Schmidt et al. Oncogene 2000, 19(20): 2423-9).

[3] = system: ovarian adenocarcinoma cell line SKOV-3; assay: Proliferation test (cellular dehydrogenase activity), SK-OV-3; format: cell-based; conditions: Homo sapiens
Excerpt: as §1, §2, §3

[4] = target: T2, complete recombinant KIF5A (Homo sapiens, UniProt Q12840); assay: Inhibition of KIF5A ATPase activity (end-point assay); format: biochemical; conditions: microtubulus-activatable ATPase
T2 construct: Here, use was made of complete recombinant KIF5A
T2 sequence (Q12840 1-1032): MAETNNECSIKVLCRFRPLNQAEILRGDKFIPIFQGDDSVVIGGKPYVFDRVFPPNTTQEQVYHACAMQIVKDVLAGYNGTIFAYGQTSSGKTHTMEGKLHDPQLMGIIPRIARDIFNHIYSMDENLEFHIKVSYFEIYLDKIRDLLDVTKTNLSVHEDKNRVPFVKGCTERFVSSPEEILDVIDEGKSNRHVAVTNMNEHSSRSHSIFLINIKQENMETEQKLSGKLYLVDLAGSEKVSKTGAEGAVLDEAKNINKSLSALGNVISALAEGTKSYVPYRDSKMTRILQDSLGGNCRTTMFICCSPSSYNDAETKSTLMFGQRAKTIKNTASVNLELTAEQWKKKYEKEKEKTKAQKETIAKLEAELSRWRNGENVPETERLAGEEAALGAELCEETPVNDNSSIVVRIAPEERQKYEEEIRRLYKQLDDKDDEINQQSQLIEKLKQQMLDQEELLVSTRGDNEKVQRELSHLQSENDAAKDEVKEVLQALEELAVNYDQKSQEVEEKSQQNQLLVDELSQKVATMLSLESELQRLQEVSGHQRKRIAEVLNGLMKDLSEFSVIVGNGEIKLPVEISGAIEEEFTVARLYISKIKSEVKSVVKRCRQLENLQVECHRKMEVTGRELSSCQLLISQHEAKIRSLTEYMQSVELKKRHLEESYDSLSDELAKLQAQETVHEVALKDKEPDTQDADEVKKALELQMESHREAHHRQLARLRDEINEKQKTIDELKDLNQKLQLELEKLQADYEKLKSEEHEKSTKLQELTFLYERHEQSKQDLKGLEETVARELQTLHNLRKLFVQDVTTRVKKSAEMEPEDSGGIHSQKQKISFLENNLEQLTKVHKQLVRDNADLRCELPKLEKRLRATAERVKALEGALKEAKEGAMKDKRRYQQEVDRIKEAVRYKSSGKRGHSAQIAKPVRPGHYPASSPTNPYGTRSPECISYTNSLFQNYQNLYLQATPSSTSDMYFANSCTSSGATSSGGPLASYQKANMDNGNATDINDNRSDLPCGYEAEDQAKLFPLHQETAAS
Method: In an in vitro test, compound 1 was examined for inhibition of KIF5A ATPase activity. Here, use was made of complete recombinant KIF5A (Niclas J, Navone F, Hom-Booher N, Vale R D Neuron 1994, 12:1059-1072).
The activity of the microtubulus-activatable ATPase was determined by end-point assay. For tubulin isolation and preparation of the microtubuli see citations in Example II) b).
Table 6 states the EC50 value of the ATPase inhibition of KIF5A by compound 1 according to the invention.

[5] = system: RKOp27 human colon carcinoma cells; assay: Proliferation test, RKOp27 cell system without p27kiP1 expression; format: cell-based; conditions: RKOp27 without expression of p27kiP1
Excerpt: as §1, §2, §3
RKO is a human colon carcinoma line in which expression of the cell cycle inhibitor p27^kiP1 can be induced using the ecdysone expression system and lead to cell cycle arrest specifically in […].
By contrast, cell cycle-specific substances, such as, for example, tubulin inhibitors, are only cytotoxic when cells are not arrested and the cell cycle is passed through.

[6] = system: bovine tubulin; assay: Inhibition of the polymerization of bovine tubulin (in vitro); format: biochemical
Excerpt: In this test, tubulin purified by polymerization and depolymerization cycles is used, which is polymerized by addition of GTP and heating.
Table 1 states the %-inhibition values and Table 2 states the EC50 values of polymerization inhibition of tubulin with 30% associated proteins (MAPs).

[7] = system: human glioblastoma cell line SF-268; assay: Proliferation test (cellular dehydrogenase activity), SF-268; format: cell-based
Excerpt: as §1, §2, §3

EC50 of the polymerization inhibition [1]: 3.0 µg/mL
EC50 [2]: 0.091 µg/mL (≈ 0.266 µM)
EC50 [3]: 0.053 µg/mL (≈ 0.155 µM)
EC50 [4]: 61.9 µM
EC50 [5]: 0.083 µg/mL (≈ 0.242 µM)
EC50 of polymerization inhibition of tubulin ([6]; bovine tubulin with 30% associated proteins (MAPs)): 7.15 µg/mL and 8.02 µg/mL
EC50 [7]: 0.076 µg/mL (≈ 0.222 µM)
Compound: O=C(C=C1c2ccccc2C(=O)c2ccccc21)c1ccc(O)c(O)c1 [Compound 1, 10-[2-(3,4-dihydroxy-phenyl)-2-oxo-ethylidene]-10H-anthracen-9-one]
Inhibition at 10 μg/ml [%] ([6]; 10 μg/ml, tubulin with 30% associated proteins (MAPs), repeat values): 98.2% and 83.0% and 86.9% and 79.7%
